Data published in ChEMBL document CHEMBL1127583, “Discovery of a potent, peripherally selective trans-3,4-dimethyl-4-(3-hydroxyphenyl)piperidine opioid antagonist for the treatment of gastrointestinal motility disorders” (J Med Chem, 1994).

Tests used:
[1] = biological target: Mu-type opioid receptor (Rattus norvegicus) (UniProt P33535); assay: Tested for binding affinity towards mu receptor in presence of [3H]NAL radioligand at 10 nM
Mus musculus [2] = assay: Tested for reduction in the analgesic response to morphine after subcutaneous administration of 1.25 mg/kg in abdominal stretching assay; type: functional, Abdomen
[3] = biological target: Kappa-type opioid receptor (Cavia porcellus) (UniProt P41144); assay: Tested for binding affinity towards kappa receptor in presence of [3H]EKC radioligand at 100 nM
[4] = biological target: Mu-type opioid receptor (Rattus norvegicus) (UniProt P33535); assay: Tested for binding affinity towards mu receptor in presence of [3H]NAL radioligand at 100 nM
[5] = biological target: Kappa-type opioid receptor (Cavia porcellus) (UniProt P41144); assay: Tested for binding affinity towards kappa receptor in presence of [3H]EKC radioligand at 10 nM
Mus musculus [6] = assay: Tested for effective dose required to produce diarrhea in morphine dependent mice after peroral administration; type: functional
Mus musculus [7] = assay: Tested for effective dose required to produce diarrhea in morphine dependent mice after subcutaneous administration; type: functional
Mu-type opioid receptor [8] = biological target: Mu-type opioid receptor (Rattus norvegicus, UniProt P33535); assay: Tested for binding affinity towards mu receptor in presence of [3H]NAL radioligand
[9] = biological target: Delta-type opioid receptor (Rattus norvegicus, UniProt P33533); assay: Tested for binding affinity towards delta receptor in rat brain homogenates using [3H]D-Ala2-[…]-enkephalin as radioligand; type: tissue-based
[10] = biological target: T1, Kappa-type opioid receptor (Cavia porcellus, UniProt P41144); assay: Tested for binding affinity towards kappa receptor in presence of [3H]EKC radioligand
Mu-type opioid receptor [11] = biological target: Mu-type opioid receptor (Cavia porcellus, UniProt P97266); assay: Tested for its antagonist activity against mu receptor using DAMGO […] in isolated guinea pig ileum; type: functional, tissue-based; settings: read-out: pA2 (converted)
[12] = biological target: Delta-type opioid receptor (Mus musculus, UniProt P32300); assay: Tested for its antagonist activity against (DPDE)delta receptor in mouse vas deferens; type: functional, tissue-based; settings: read-out: pA2 (converted)
[13] = biological target: T1, Kappa-type opioid receptor; assay: Tested for its antagonist activity against kappa receptor using U-69,593 […] in isolated guinea pig ileum; type: functional, tissue-based; settings: read-out: pA2 (converted)
[14] = Mus musculus, po, read-out: ED50
[15] = Mus musculus, sc, read-out: ED50

Sequence of Mu-type opioid receptor (Rattus norvegicus, UniProt P33535) (P33535 whole entry): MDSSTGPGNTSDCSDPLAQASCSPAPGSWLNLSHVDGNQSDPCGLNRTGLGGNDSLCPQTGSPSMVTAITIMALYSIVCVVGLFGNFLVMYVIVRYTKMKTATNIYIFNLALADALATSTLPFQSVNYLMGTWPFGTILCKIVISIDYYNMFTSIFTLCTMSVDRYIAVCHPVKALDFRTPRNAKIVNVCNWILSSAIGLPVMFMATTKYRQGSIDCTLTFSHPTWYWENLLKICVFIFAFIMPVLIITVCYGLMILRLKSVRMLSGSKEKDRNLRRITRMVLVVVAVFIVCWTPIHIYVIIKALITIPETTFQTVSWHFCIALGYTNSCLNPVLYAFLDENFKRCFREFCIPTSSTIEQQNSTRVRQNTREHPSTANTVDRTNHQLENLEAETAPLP
Sequence of Mu-type opioid receptor (Rattus norvegicus) (P33535 whole entry): as above
T1 sequence (P41144 whole entry): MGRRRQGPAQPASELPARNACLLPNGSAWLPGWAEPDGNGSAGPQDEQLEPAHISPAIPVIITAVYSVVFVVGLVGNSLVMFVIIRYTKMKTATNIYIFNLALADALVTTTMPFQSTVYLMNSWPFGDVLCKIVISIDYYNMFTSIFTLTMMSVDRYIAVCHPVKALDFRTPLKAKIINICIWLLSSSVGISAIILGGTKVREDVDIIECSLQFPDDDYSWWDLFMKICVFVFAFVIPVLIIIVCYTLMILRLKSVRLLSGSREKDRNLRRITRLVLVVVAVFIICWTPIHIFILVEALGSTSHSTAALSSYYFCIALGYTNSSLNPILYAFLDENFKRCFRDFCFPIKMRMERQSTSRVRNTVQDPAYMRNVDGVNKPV
Sequence of Kappa-type opioid receptor (Cavia porcellus) (P41144 whole entry): as above
Sequence of Delta-type opioid receptor (Rattus norvegicus, UniProt P33533) (P33533 whole entry): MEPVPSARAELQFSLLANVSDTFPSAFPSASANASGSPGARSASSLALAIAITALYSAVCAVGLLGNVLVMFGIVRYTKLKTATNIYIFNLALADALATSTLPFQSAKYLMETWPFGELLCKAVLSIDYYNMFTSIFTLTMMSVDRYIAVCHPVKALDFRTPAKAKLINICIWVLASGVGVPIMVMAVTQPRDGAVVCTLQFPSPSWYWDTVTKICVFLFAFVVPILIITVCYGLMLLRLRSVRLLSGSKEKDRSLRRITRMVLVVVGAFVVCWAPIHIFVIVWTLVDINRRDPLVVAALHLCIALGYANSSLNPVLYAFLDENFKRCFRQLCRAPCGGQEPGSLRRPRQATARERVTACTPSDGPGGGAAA
Sequence of Delta-type opioid receptor (Mus musculus, UniProt P32300) (P32300 whole entry): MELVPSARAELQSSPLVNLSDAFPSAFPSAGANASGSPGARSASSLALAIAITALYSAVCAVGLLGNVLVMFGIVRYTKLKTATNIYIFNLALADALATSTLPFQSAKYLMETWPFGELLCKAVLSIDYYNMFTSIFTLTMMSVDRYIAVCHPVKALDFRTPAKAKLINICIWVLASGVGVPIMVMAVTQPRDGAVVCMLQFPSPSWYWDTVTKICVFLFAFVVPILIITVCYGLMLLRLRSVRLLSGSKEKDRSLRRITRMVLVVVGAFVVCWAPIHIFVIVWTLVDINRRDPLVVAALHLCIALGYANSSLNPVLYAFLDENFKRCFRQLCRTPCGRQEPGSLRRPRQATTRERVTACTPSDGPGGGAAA
Sequence of Mu-type opioid receptor (Cavia porcellus, UniProt P97266) (P97266 whole entry): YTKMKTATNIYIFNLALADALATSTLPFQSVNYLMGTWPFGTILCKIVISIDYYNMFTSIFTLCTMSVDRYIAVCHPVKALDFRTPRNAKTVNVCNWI

Row | SMILES | AD50 (Mus musculus [2]) | Specific Displacement [3] | Specific Displacement [5] | ED50 (Mus musculus [6]; [14]) | ED50 (Mus musculus [7]; [15]) | Ki (Mu-type opioid receptor [8]) | other results
1 | CC(C)COC(=O)CNC(=O)[C@H](Cc1ccccc1)CN1CC[C@](C)(c2cccc(O)c2)[C@H](C)C1 | >40 mg/kg | 34% | 0% | > 10 mg/kg | 0.37 mg/kg |  | Specific Displacement [1]: 57%; Specific Displacement [4]: 92%
2 | C[C@H]1CN(CC(Cc2ccccc2)C(=O)NCC(=O)O)CC[C@@]1(C)c1cccc(O)c1 (stereo not given in full) | >40 mg/kg | 53% | 23% | 2 mg/kg | 0.028 mg/kg |  | 
3 | C[C@H]1CN(CC(Cc2ccccc2)C(=O)O)CC[C@@]1(C)c1cccc(O)c1 (stereo not given in full) |  | 15% | 0% |  | 0.028 mg/kg |  | 
4 | CC(C)COC(=O)CNC(=O)C(Cc1ccccc1)CN1CCC(C)(c2cccc(O)c2)C(C)C1 (racemic) | >40 mg/kg | 16% | 7% | 1.1 mg/kg | 0.15 mg/kg | 4 nM | 
5 | CC1CN(C[C@H](Cc2ccccc2)C(=O)NCC(=O)O)CCC1(C)c1cccc(O)c1 (stereo not given in full) | 9 mg/kg |  |  | 0.84 mg/kg | 0.04 mg/kg | 0.77 nM | Ki [9]: 4.4 nM; Ki [10]: 40 nM; Kb (Mu-type opioid receptor [11]): 0.2 nM; Kb [12]: 2 nM; Kb [13]: 15.8 nM
6 | C=CCN1CC[C@]23c4c5ccc(O)c4O[C@H]2C(=O)CC[C@@]3(O)[C@H]1C5 [NALOXONE] | 0.08 mg/kg |  |  |  | 0.05 mg/kg |  | 
7 | CC(C)COC(=O)CNC(=O)[C@H](Cc1ccccc1)CN1CC[C@@](C)(c2cccc(O)c2)[C@@H](C)C1 | 29.6 mg/kg | 0% | 0% | > 10 mg/kg | 0.5 mg/kg |  | Specific Displacement [1]: 11%; Specific Displacement [4]: 70%
8 | CC(C)COC(=O)CNC(=O)[C@@H](Cc1ccccc1)CN1CCC(C)(c2cccc(O)c2)C(C)C1 (single isomer, unassigned) |  | 55% | 4% | 1.7 mg/kg |  | 19.2 nM | AD50 (Mus musculus [2]; 1.25 mg/kg): 16.8 mg/kg; ED50 (Mus musculus [7]): 0.02 mg/kg
9 | CC(C)COC(=O)CNC(=O)[C@@H](Cc1ccccc1)CN1CC[C@@](C)(c2cccc(O)c2)[C@@H](C)C1 |  |  |  |  |  | 5.5 nM | AD50 (Mus musculus [2]; 1.25 mg/kg): 11.6 mg/kg; Ki [10]: 23 nM; ED50 (Mus musculus [6]): 1.3 mg/kg; ED50 (Mus musculus [7]): 0.044 mg/kg
